In patent publication US20160303081A1, “INHIBITORS OF BETA1-INTEGRIN AND METHODS OF USE” (The Texas A&M University System, priority 2015, published 2016):

Columns and labels:
[1] = target: T1, NR4A1 (Homo sapiens, UniProt P22736); experiment: GAL4-NR4A1 / UAS5-luc transactivation reporter assay in Panc1 cells; assay type: cell-based; conditions: Panc1 cells transfected with GAL4-NR4A1 (full length) and UAS5-luc reporter; FIG. 2A/2B
T1 construct: Panc1 cells were transfected with a GAL4-NR4A1 (full length) construct; expressed in transfected cells; host or cells: Panc1
T1 sequence (P22736 whole entry, the tested form may be a part): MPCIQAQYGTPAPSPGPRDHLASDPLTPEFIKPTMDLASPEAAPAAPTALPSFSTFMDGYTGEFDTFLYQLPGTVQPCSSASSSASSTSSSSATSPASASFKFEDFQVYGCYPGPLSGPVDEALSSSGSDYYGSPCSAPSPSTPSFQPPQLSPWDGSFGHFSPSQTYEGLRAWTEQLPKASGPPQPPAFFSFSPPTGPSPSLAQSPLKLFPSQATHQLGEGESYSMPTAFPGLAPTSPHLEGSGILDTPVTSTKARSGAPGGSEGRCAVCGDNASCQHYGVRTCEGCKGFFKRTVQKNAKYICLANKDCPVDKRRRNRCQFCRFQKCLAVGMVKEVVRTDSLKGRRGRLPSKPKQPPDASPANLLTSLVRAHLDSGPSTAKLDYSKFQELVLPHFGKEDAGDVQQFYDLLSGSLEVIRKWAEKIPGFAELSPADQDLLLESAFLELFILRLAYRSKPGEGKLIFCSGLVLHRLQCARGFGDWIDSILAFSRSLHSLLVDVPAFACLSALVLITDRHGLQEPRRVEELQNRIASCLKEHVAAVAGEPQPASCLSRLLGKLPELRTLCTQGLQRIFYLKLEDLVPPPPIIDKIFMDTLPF
From the text: (§1) These compounds bind the receptor and are receptor antagonists. Thus, C-DIMs are the first NR4A1 antagonists that inhibit NR4A1-mediated pro-oncogenic genes/pathways. The transactivation and NR4A1 binding of the p-hydroxyphenyl (DIM-C-pPhOH) analog was initially investigated.

[2] = target: ligand binding domain (LBD) of NR4A1 (Homo sapiens, UniProt P22736); experiment: Fluorescence quenching binding assay with His-NR4A1 (LBD); conditions: His-tagged ligand binding domain of NR4A1
Chain of ligand binding domain (LBD) of NR4A1 (P22736 360-595 limits assumed): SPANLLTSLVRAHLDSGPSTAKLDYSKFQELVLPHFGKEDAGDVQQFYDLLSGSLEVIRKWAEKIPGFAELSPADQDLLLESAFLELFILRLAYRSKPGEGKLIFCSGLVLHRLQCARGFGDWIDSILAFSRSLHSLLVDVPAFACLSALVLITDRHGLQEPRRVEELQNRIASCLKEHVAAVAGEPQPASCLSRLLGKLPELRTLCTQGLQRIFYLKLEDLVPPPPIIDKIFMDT
From the text: as §1
Using a fluorescent binding assay, a library of C-DIM compounds were screened. Specifically, 14 different C-DIM analogs with pPhX on the bridging carbon (i.e., as R8) were screened, where X was CF3, Br, F, t-Butyl, OCH3, N-dimethylamino, H, OH, C6H5, CN, CH3, Cl, I and CO2Me. Each analog bound the ligand binding domain of NR4A1 and KD values for binding varied from 0.1-0.71 μM.

[3] = test system: MDA-MB-231 cells; experiment: Migration/invasion of MDA-MB-231 cells; assay type: cell-based, human; conditions: MDA-MB-231 cells (FIG. 15)
From the text: FIG. 15 illustrates that the NR4A1 antagonist DIM-C-pPhCO2ME inhibits migration/invasion of MDA-MB-231 cells.
(§2) Assessing downstream effects of the above β1-integrin inhibition, knockdown of NR4A1 (TR3) by RNA interference decrease migration and invasion performance of SKBr3 and MDA-MB-231 cells (FIG. 14). […] Moreover, the effects of other NR4A1 antagonists on migration and invasion of the breast cancer cells were investigated.

[4] = test system: SKBR3 cells; experiment: Migration/invasion of SKBR3 cells; assay type: cell-based, human; conditions: SKBR3 cells (FIGS. 16, 17)
From the text: FIG. 16 illustrates that the NR4A1 antagonist DIM-C-pPhCO2ME inhibits migration/invasion of SKBR3 cells.
as §2

[5] = test system: pancreatic cancer cells; experiment: Boyden Chamber invasion assay, pancreatic cancer cells; assay type: cell-based; conditions: 20 μM, p<0.001 (FIGS. 4A, 4B)
From the text: FIGS. 4A and 4B illustrate that DIM-C-pPhOH decreases pancreatic cancer cell invasion in a Boyden Chamber assay. Significant inhibition with p<0.001 indicated with “#”.
Previous studies indicate that in pancreatic cancers, NR4A1 regulates pro-survival genes (e.g. survivin) through an Sp1/p300/NR4A1 complex in which Sp1 binds promoter DNA. […] A third pathway involves activation of mTOR which is due to inactivation of p53 by binding NR4A1 and this pathway is only observed in cancer cell lines and tumors expressing wild-type p53.

[6] = test system: β1-integrin; experiment: Expression of β1-integrin and related gene products, pancreatic cancer cells; assay type: cell-based; conditions: 20 μM (FIG. 7)
Description: (§3) Discovery of NR4A1-regulated pro-invasion/migration genes was determined using Illumina Human HT-12V4 Beadchip arrays (FIGS. 5A and 5B). Knockdown of NR4A1 in Panc1 cells decreased expression of β1-integrin which is known to play an important role in cell migration and invasion. […] The loss of α5-integrin may be indirect since it was previously reported that β1-integrin silencing by RNAi decreased α5-integrin. […] Decreased adhesion to fibronectin-coated plates was also observed in pancreatic cancer cells treated with DIM-C-pPhOH (FIG. 9), confirming that siNR4A1 and NR4A1 antagonists decrease expression of β1-integrin. This represents a novel approach for targeting this pro-oncogenic factor in pancreatic cancer.

[7] = test system: pancreatic cancer cells; experiment: Adhesion to human fibronectin-coated plates, pancreatic cancer cells; assay type: cell-based; conditions: 20 μM, p<0.001 / p<0.005 (FIG. 9)
Description: Significant inhibition with p<0.001 indicated with “#” and significant inhibition with p<0.005 indicated with “***”.
as §3

[8] = test system: L3.6pL orthotopic xenograft; experiment: L3.6pL orthotopic xenograft in athymic nude mice, tumor lysates by Western blot; assay type: in vivo; conditions: 30 mg/kg/d, compared to corn oil control; lysate from two animals (FIG. 10)
From the text: The tumor lysate from two animals is shown.

[9] = test system: β1-integrin; experiment: β1-integrin expression, MDA-MB-231 breast cancer cells; assay type: cell-based, human; conditions: MDA-MB-231 cells (FIGS. 11, 12)
[10] = test system: β1-integrin; experiment: β1-integrin expression, SKBR3 breast cancer cells; assay type: cell-based, human; conditions: SKBR3 cells (FIGS. 11, 12)
[11] = test system: β1-integrin; experiment: β1-integrin expression, MCF-7 breast cancer cells; assay type: cell-based; conditions: MCF-7 cells
[12] = test system: β1-integrin; experiment: β1-integrin expression, RKO colon cancer cells; assay type: cell-based; conditions: RKO colon cancer cells (FIG. 13)
[13] = test system: β1-integrin; experiment: β1-integrin expression, SW480 colon cancer cells; assay type: cell-based; conditions: SW480 colon cancer cells (FIG. 13)
[14] = test system: pancreatic cancer cells; conditions: stated with previous studies; cited from earlier work
[15] = test system: L3.6pL orthotopic xenograft; conditions: athymic nude mice, orthotopic model; previous studies; cited from earlier work

Row | Structure (SMILES) | luciferase activity (NR4A1-dependent transactivation) [1] | binding to His-NR4A1 (LBD), fluorescence quenching [2] | migration and invasion [3] | migration and invasion [4] | invasion [5] | β1-integrin and related gene products [6] | cell adhesion to human fibronectin-coated plates [7] | expression of α5-integrin in tumor lysates [8] | expression of β1-integrin in tumor lysates [8] | β1-integrin expression [9] | β1-integrin expression [10] | β1-integrin expression [11] | β1-integrin expression [12] | β1-integrin expression [13] | apoptosis [14] | pancreatic cancer cell growth [14] | tumor growth [15]
1 | COC(=O)c1ccc(C(c2c[nH]c3ccccc23)c2c[nH]c3ccccc23)cc1 [DIM-C-pPhCO2Me] | inhibits NR4A-dependent transactivation | binds the LBD of NR4A1 | inhibits migration and invasion | inhibits migration and invasion |  |  |  |  |  |  |  |  |  |  |  |  | 
2 | Oc1ccc(C(c2c[nH]c3ccccc23)c2c[nH]c3ccccc23)cc1 [DIM-C-pPhOH, 1,1-bis(3′-indolyl)-1-(p-hydroxyphenyl)methane] | decreased luciferase activity | quenches fluorescence |  |  | decreased invasion | decreases β1-integrin and related gene products | decreases pancreatic cancer cell adhesion | decreases expression | decreases expression | decreased β1-integrin expression | decreased β1-integrin expression | decreased β1-integrin expression | decreases β1-integrin expression | decreases β1-integrin expression | induce apoptosis | inhibit pancreatic cancer cell growth | inhibits tumor growth
